From PMC5048153 (Scientific Reports, 2016)
Where a name gives a salt, the structure may show the parent alone.

What was measured:
[1] = tested on: corticosterone-injured PC12 cells; test: Protective effects on corticosterone-injured PC12 cells (MTT); assay type: cell-based, rat; design: key to PR (protection rate), Table S1: compounds did not shown protection effects on corticosterone-injured PC12 cells; conditions: 24 h after treatment; for PR (protection rate), Table S1: 1.25µM; for PR (protection rate): 200 μM corticosterone
Procedure: PC12 cells were purchased from American Type Culture Collection and were maintained in DMEM medium supplemented with penicillin (100 unit/ml), streptomycin (100 μg/ml), 5% fetal bovine serum (FBS), and 10% horse serum at 37 °C in humidified atmosphere with 5% CO2. The detailed procedures were performed referring to the reported literatures. Briefly, PC12 cells of logarithmic growth phase were collected, re-suspended and then seeded at a density of 1 × 10^5 cells per well in 96-well plates and cultured in the DMEM medium with 5% horse serum, 10% FBSfor 24 h.
After incubation with compounds, 20 μl of 5 mg/ml MTT solution was added to each well and cultured at 37 °C for 2 h–4 h. Then, the culture medium was removed, and 150 μl dimethyl sulfoxide(DMSO) was added to each well for 15 min at room temperature. The absorbance of each well was measured at 570 nm using a microplate reader. The protective rates (PR) were calculated according to equation (1).

HEK293 cells = test: Cytotoxicity on HEK293 cells (MTT); assay type: cell-based, human; conditions: after treatment; for inhibition at 100 µM: Homo sapiens, HEK293, 100μM, read-out: IR (inhibitory rate) HEK293; for IR (inhibitory rate) HEK293: 100μM
Procedure: (§1) Human normal hepatic L02 cells, human embryonic kidney cell line 293 cells (HEK293) and Rattus myoblast cell line H9C2 cells were respectively seeded in 96-well plates at a density of 4 × 10^3 cells per well and cultured in the 1640 or DMEM medium, with the supplement of 10% fetal bovine serum, penicillin (100 unit/ml), streptomycin (100 μg/ml) in a humidified incubator with 5% CO2 for 24 h. […] The cytotoxicities of the compounds were evaluated by MTT method.

L02 cells = test: Cytotoxicity on L02 cells (MTT); assay type: cell-based, human; conditions: after treatment; for inhibition at 100 µM: Homo sapiens, L02, 100μM, read-out: IR (inhibitory rate) L02; for IR (inhibitory rate) L02: 100μM
Procedure: as §1

| Compound | PR (protection rate), Table S1 [1] | inhibition at 100 µM (HEK293 cells) | inhibition at 100 µM (L02 cells) | IR (inhibitory rate) HEK293 (HEK293 cells) | IR (inhibitory rate) L02 (L02 cells) | PR (protection rate) ([1]; 5 μM) | PR (protection rate) ([1]; […]) | PR (protection rate) ([1]; 1.25 μM) |
| --- | --- | --- | --- | --- | --- | --- | --- | --- |
| COc1ccc2c(c1)C(CCNC(=O)Nc1cccc3ccccc13)=NCC2.O=C(O)C(=O)O [6b-13, 1-(2-(7-Methoxy-3,4-dihydroisoquinolin-1-yl)ethyl)-3-(naphthalen-1-yl)urea oxalate] | - | < 20% | < 20% |  |  |  |  |  |
| COc1ccc2c(c1)C(CCNC(=O)c1cncc(Br)c1)=NCC2.O=C(O)C(=O)O [6a-29, 5-Bromo-N-(2-(7-methoxy-3,4-dihydroisoquinolin-1-yl)ethyl)nicotinamide oxalate] | - | 29.5% | 14.4% |  |  |  |  |  |
| COc1ccc2c(c1)C(CCNC(=O)c1ccc(C(C)C)cc1)=NCC2 [6a-13, 4-Isopropyl-N-(2-(7-methoxy-3,4-dihydroisoquinolin-1-yl)ethyl) benzamide oxalate] | - | 57.6% | 43% |  |  |  |  |  |
| COc1ccc2c(c1)C(CCNC(=O)c1ccccc1Cl)=NCC2 [6a-7, 2-Chloro-N-(2-(7-methoxy-3,4-dihydroisoquinolin-1-yl)ethyl) benzamide oxalate] | - | 27.4% | 23.5% |  |  |  |  |  |
| COc1ccc2c(c1)C(CCNC(=O)c1ccccn1)=NCC2.O=C(O)C(=O)O [6a-24, N-(2-(7-Methoxy-3,4-dihydroisoquinolin-1-yl)ethyl)picolinamide oxalate] | - | 62.9% | 55.8% |  |  |  |  |  |
| N-(2-(7-Methoxy-3,4-dihydroisoquinolin-1-yl)ethyl)-4-methylbenzamide oxalate [6a-32] | - |  |  | 54.8% | 43.2% |  |  |  |
| COc1ccc2c(c1)C(CCNC(=O)c1ccc(F)cc1)=NCC2 [6a-12, 4-Fluoro-N-(2-(7-methoxy-3,4-dihydroisoquinolin-1-yl)ethyl) benzamide oxalate] | 0.7% | 43.8% | 19.1% |  |  |  |  |  |
| COc1ccc2c(c1)C(CCNC(=O)Nc1ccc(Cl)cc1[N+](=O)[O-])=NCC2 [6b-16, 1-(4-Chloro-2-nitrophenyl)-3-(2-(7-methoxy-3,4-dihydroisoquinolin-1-yl)ethyl)urea oxalate] |  | 52% | 53.2% |  |  |  |  |  |
| COc1ccc(C(=O)NCCC2=NCCc3ccc(OC)cc32)c(OC)c1 [6a-15, 2,4-Dimethoxy-N-(2-(7-methoxy-3,4-dihydroisoquinolin-1-yl)ethyl) benzamide oxalate] | 3.7% | 56.1% | 49.5% |  |  |  |  |  |
| 4-Fluoro-N-(2-(7-methoxy-3,4-dihydroisoquinolin-1-yl)ethyl)benzamide oxalate [6a-33] | - |  |  | 43.0% | 45.2% |  |  |  |
| COc1ccc2c(c1)C(CCNC(=O)Nc1ccc(F)c(Cl)c1)=NCC2.O=C(O)C(=O)O [6b-14, 1-(3-Chloro-4-fluorophenyl)-3-(2-(7-methoxy-3,4-dihydroisoquinolin-1-yl)ethyl)urea oxalate] | - | 22.8% | 47.7% |  |  |  |  |  |
| COc1ccc2c(c1)C(CCNC(=O)c1cc(C(F)(F)F)ccc1Br)=NCC2.O=C(O)C(=O)O [6a-28, 2-Bromo-N-(2-(7-methoxy-3,4-dihydroisoquinolin-1-yl)ethyl)-5-(trifluoromethyl)benzamide oxalate] | 2.4% | 58.5% | 43.7% |  |  |  |  |  |
| COc1ccc2c(c1)C(CCNC(=O)Nc1c(C)cc(C#N)cc1C)=NCC2.O=C(O)C(=O)O [6b-6, 1-(4-Cyano-2,6-dimethylphenyl)-3-(2-(7-methoxy-3,4-dihydroisoquinolin-1-yl)ethyl)urea oxalate] | - | < 20% | < 20% |  |  |  |  |  |
| CCC(=O)NCCC1=NCCc2ccc(OC)cc21.O=C(O)C(=O)O [6a-2, N-(2-(7-Methoxy-3,4-dihydroisoquinolin-1-yl)ethyl) propionamide oxalate] |  | 23.4% | 12.4% |  |  | 3.1% | 18.1% |  |
| COc1ccc2c(c1)C(CCNC(=O)C(F)(F)F)=NCC2 [6a-3, 2,2,2-Trifluoro-N-(2-(7-methoxy-3,4-dihydroisoquinolin-1-yl)ethyl) acetamideoxalate] | -^b | 60.1% | 59.6% |  |  |  |  |  |
| COc1ccc2c(c1)C(CCNC(=O)Nc1ccc(Br)cc1)=NCC2 [6b-21, 1-(4-Bromophenyl)-3-(2-(7-methoxy-3,4-dihydroisoquinolin-1-yl)ethyl)ureaoxalate] | - | 41.2% | 38.3% |  |  |  |  |  |
| COc1ccc2c(c1)C(CCNC(=O)Nc1ccccc1[N+](=O)[O-])=NCC2 [6b-19, 1-(2-(7-Methoxy-3,4-dihydroisoquinolin-1-yl)ethyl)-3-(2-nitrophenyl)ureaoxalate] | - | 33.5% | 31.5% |  |  |  |  |  |
| COc1ccc2c(c1)C(CCNC(=O)Nc1ccc(C#N)c(F)c1)=NCC2.O=C(O)C(=O)O [6b-7, 1-(4-Cyano-3-fluorophenyl)-3-(2-(7-methoxy-3,4-dihydroisoquinolin-1-yl)ethyl)urea oxalate] | - | 27.2% | 24.7% |  |  |  |  |  |
| COc1ccc2c(c1)C(CCNC(=O)Nc1ccc(Cl)c(Cl)c1)=NCC2.O=C(O)C(=O)O [6b-18, 1-(3,4-Dichlorophenyl)-3-(2-(7-methoxy-3,4-dihydroisoquinolin-1-yl)ethyl)urea oxalate] | 12.8% | 56.1% | 57.5% |  |  |  |  | above 10% |
| 2-((2-(7-Methoxy-3,4-dihydroisoquinolin-1-yl)ethyl)carbamoyl)phenylacetate oxalate [6a-20] | - |  |  | 57.1% | 54.9% |  |  |  |
| COc1ccc2c(c1)C(CCNC(=O)c1ccc(C(C)=O)cc1)=NCC2 [6a-16, 4-Acetyl-N-(2-(7-methoxy-3,4-dihydroisoquinolin-1-yl)ethyl) benzamideoxalate] | 6.1% | < 20% | < 20% |  |  |  |  |  |
| COc1ccc2c(c1)C(CCNC(=O)c1ccc(Br)nc1)=NCC2.O=C(O)C(=O)O [6a-31, 6-Bromo-N-(2-(7-methoxy-3,4-dihydroisoquinolin-1-yl)ethyl)nicotinamide oxalate] | 0.2% | 56.1% | 46.1% |  |  |  |  |  |
| COc1ccc2c(c1)C(CCNC(=O)Nc1ccc(C(F)(F)F)cc1)=NCC2.O=C(O)C(=O)O [6b-3, 1-(2-(7-Methoxy-3,4-dihydroisoquinolin-1-yl)ethyl)-3-(4-(trifluoromethyl)phenyl)urea oxalate] | 10.7% | 23.2% | 35.8% |  |  |  |  | above 10% |
| COc1ccc2c(c1)C(CCNC(=O)Nc1ncccc1Br)=NCC2.O=C(O)C(=O)O [6b-22, 1-(3-Bromopyridin-2-yl)-3-(2-(7-methoxy-3,4-dihydroisoquinolin-1-yl)ethyl)urea oxalate] | - | 46.4% | 48.5% |  |  |  |  |  |
| COc1ccc2c(c1)C(CCNC(=O)Nc1cccc(Cl)c1)=NCC2.O=C(O)C(=O)O [6b-2, 1-(3-Chlorophenyl)-3-(2-(7-methoxy-3,4-dihydroisoquinolin-1-yl)ethyl)urea oxalate] | - | 37.9% | 38.9% |  |  |  |  |  |
| 2-(3-(2-(7-Methoxy-3,4-dihydroisoquinolin-1-yl)ethyl)ureido)thiazole-5-carboxylate oxalate [6b-8] | - |  |  | 49.2% | 50.0% |  |  |  |
| COc1ccc2c(c1)C(CCNC(=O)c1cccnc1Cl)=NCC2.O=C(O)C(=O)O [6a-21, 2-Chloro-N-(2-(7-methoxy-3,4-dihydroisoquinolin-1-yl)ethyl)nicotinamide oxalate] | 15.2% | 49.8% | 58.8% |  |  |  |  | above 10% |
| COc1ccc2c(c1)C(CCNC(=O)Nc1ccc(Cl)c(C(F)(F)F)c1)=NCC2 [6b-9, 1-(4-Chloro-3-(trifluoromethyl)phenyl)-3-(2-(7-methoxy-3,4-dihydroisoquinolin-1-yl)ethyl)urea oxalate] |  | 31.6% | 25.7% |  |  |  |  |  |
| COc1ccc2c(c1)C(CCNC(=O)NC(C)C)=NCC2 [6b-10, 1-Isopropyl-3-(2-(7-methoxy-3,4-dihydroisoquinolin-1-yl)ethyl)urea oxalate] |  | 34.7% | 31.9% |  |  |  |  |  |
